Test results reported in patent publication US7439386B2, “Therapeutic substituted cyclopentanones” (Allergan, Inc., priority 2005, dated 2008).

Key:
cynomolgus monkeys = experiment: Intraocular pressure in cynomolgus monkeys; format: in vivo; conditions: 0.005% topical, single dose
Experimental: (§1) Intraocular pressure studies in dogs involved pneumatonometry performed in conscious, Beagle dogs of both sexes (10-15 kg). The animals remained conscious throughout the study and were gently restrained by hand. Drugs were administered topically to one eye as a 25 μL volume drop, the other eye received 25 μL vehicle (0.1% polysorbate 80:10 mM TRIS) as a control. Proparacaine (0.1%) was used for corneal anesthesia during tonometry. Intraocular pressure was determined just before drug administration and at 2, 4 and 6 hr thereafter on each day of the 5 day study. Drug was administered immediately after the first IOP reading.
An analogous procedure was carried out with cynomolgus monkeys with measurements at 2, 4, 6, and 24 hours after a single dose.

rabbit = experiment: Ocular surface hyperemia in rabbits; format: in vivo; conditions: 0.005%, score 0.5 trace, 1 mild, 2 moderate, 3 severe
Experimental: (§2) Ocular surface hyperemia was visually assessed and scored according to a system typically used clinically.
(§3) Ocular surface hyperemia was evaluated at the same time points as intraocular pressure measurement. It should be noted that untreated dog eyes frequently have a pink/red tone. Thus, values of trace or even mild are not necessarily out of the normal range. A similar procedure was used to determine rabbit hyperemia.

Beagle dogs [1] = experiment: Intraocular pressure in dogs (pneumatonometry); format: in vivo; conditions: 0.005% topical 25 μL drop, 5 day study
Experimental: as §1

Beagle dogs [2] = experiment: Ocular surface hyperemia in dogs; format: in vivo; conditions: 0.005% topical, score 0.5 trace, 1 mild, 2 moderate, 3 severe
Experimental: as §1, §2, §3

hEP2/Gqs5 = target: T1, hEP2/Gqs5 (Homo sapiens, UniProt P43116); experiment: FLIPR calcium signal, hEP2/Gqs5; format: cell-based; conditions: HEK-293(EBNA) cells, read-out: EP2 Ca2+ EC50
T1 construct: expressed in transfected cells
T1 sequence (P43116 whole entry): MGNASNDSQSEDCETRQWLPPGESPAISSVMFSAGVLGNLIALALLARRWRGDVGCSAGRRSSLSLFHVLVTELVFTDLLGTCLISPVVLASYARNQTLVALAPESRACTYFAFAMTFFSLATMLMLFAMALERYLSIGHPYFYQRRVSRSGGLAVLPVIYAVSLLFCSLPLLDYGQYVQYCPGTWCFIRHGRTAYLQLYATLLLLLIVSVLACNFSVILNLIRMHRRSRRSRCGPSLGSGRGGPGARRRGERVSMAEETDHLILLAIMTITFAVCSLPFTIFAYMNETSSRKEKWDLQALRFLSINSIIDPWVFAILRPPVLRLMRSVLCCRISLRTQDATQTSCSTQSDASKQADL
Experimental: (§4) HEK-293(EBNA) cells, stably expressing one type or subtype of recombinant human prostaglandin receptors (prostaglandin receptors expressed: hDP/Gqs5; hEP1; hEP2/Gqs5; hEP3A/Gqi5; hEP4/Gqs5; hFP; hIP; hTP), are cultured in 100 mm culture dishes in high-glucose DMEM medium containing 10% fetal bovine serum, 2 mM 1-glutamine, 250 μg/ml geneticin (G418) and 200 μg/ml hygromycin B as selection markers, and 100 units/ml penicillin G, 100 μg/ml streptomycin and 0.25 μg/ml amphotericin B.
(§5) Cells are seeded at a density of 5×10^4 cells per well in Biocoat® Poly-D-lysine-coated black-wall, clear-bottom 96-well plates (Becton-Dickinson) and allowed to attach overnight in an incubator at 37° C. Cells are then washed two times with HBSS-HEPES buffer (Hanks Balanced Salt Solution without bicarbonate and phenol red, 20 mM HEPES, pH 7.4) using a Denley Cellwash plate washer (Labsystems). After 45 minutes of dye-loading in the dark, using the calcium-sensitive dye Fluo-4 AM at a final concentration of 2 μM, plates are washed four times with HBSS-HEPES buffer to remove excess dye leaving 100 μl in each well. Plates are re-equilibrated to 37° C. for a few minutes.
(§6) Cells are excited with an Argon laser at 488 nm, and emission is measured through a 510-570 nm bandwidth emission filter (FLIPR™, Molecular Devices, Sunnyvale, Calif.). Drug solution is added in a 50 μl volume to each well to give the desired final concentration. The peak increase in fluorescence intensity is recorded for each well. On each plate, four wells each serve as negative (HBSS-HEPES buffer) and positive controls (standard agonists: BW245C (hDP); PGE2 (hEP1; hEP2/Gqs5; hEP3A/Gqi5; hEP4/Gqs5); PGF2α (hFP); carbacyclin ([…]); U-46619 (hTP), depending on receptor). The peak fluorescence change in each drug-containing well is then expressed relative to the controls.
(§7) Compounds are tested in a high-throughput (HTS) or concentration-response (CoRe) format. […]

EP2 receptor = target: T2, EP2 receptor (Homo sapiens, UniProt P43116); experiment: Radioligand binding, EP2 receptor; conditions: [3H]PGE2 competition, HEK-293 membranes
T2 construct: expressed in transfected cells; membrane fraction
T2 sequence (P43116 whole entry): as above
Experimental: (§8) HEK-293 cells stably expressing the human or feline FP receptor, or EP1, EP2, or EP4 receptors are washed with TME buffer, scraped from the bottom of the flasks, and homogenized for 30 sec using a Brinkman PT 10/35 polytron. TME buffer is added to achieve a final 40 ml volume in the centrifuge tubes (the composition of TME is 100 mM TRIS base, 20 mM MgCl2, […]; 10N HCl is added to achieve a pH of 7.4).
(§9) The cell homogenate is centrifuged at 19000 r.p.m. for 20 min at 4° C. using a Beckman Ti-60 rotor. The resultant pellet is resuspended in TME buffer to give a final 1 mg/ml protein concentration, as determined by Biorad assay. Radioligand binding competition assays vs. [^3H—]17 phenyl PGF2α (5 nM) are performed in a 100 μl volume for 60 min. Binding reactions are started by adding plasma membrane fraction. The reaction is terminated by the addition of 4 ml ice-cold TRIS-HCl buffer and rapid filtration through glass fiber GF/B filters using a Brandel cell harvester. The filters are washed 3 times with ice-cold buffer and oven dried for one hour. Non-specific binding is determined with 10 uM unlabeled 17 phenyl PGF2α.
(§10) [^3H—] PGE2 (5 nM; specific activity 180 Ci mmol) is used as the radioligand for EP receptors. Binding studies employing EP1, EP2, EP3, EP4 are performed in duplicate in at least three separate experiments. A 200 μl assay volume is used. Incubations are for 60 min at 25° C. and are terminated by the addition of 4 ml of ice-cold 50 mM TRIS-HCl, followed by rapid filtration through Whatman GF/B filters and three additional 4 ml washes in a cell harvester (Brandel). Non-specific binding is determined with 10^−5M of unlabeled PGE2.

hEP3A/Gqi5 = target: T3, hEP3A/Gqi5 (Homo sapiens, UniProt P43115); experiment: FLIPR calcium signal, hEP3A/Gqi5; format: cell-based; conditions: HEK-293(EBNA) cells, read-out: OTHER RECEPTORS Ca2+ EC50: EP3
T3 construct: expressed in transfected cells
T3 sequence (P43115 1-390): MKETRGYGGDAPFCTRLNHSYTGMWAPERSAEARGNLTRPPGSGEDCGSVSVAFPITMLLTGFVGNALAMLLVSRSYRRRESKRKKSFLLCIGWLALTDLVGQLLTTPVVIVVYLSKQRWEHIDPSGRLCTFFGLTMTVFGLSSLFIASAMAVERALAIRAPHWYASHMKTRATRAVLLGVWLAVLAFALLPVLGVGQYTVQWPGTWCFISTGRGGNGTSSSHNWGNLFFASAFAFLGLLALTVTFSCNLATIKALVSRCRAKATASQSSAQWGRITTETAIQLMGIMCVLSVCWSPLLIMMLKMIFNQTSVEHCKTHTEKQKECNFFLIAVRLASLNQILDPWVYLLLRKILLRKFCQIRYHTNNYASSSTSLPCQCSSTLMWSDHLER
Experimental: as §4, §5, §6, §7

EP4 receptor = target: T4, EP4 receptor (Homo sapiens, UniProt P35408); experiment: Radioligand binding, EP4 receptor; conditions: [3H]PGE2 competition, HEK-293 membranes
T4 construct: expressed in transfected cells; membrane fraction
T4 sequence (P35408 whole entry): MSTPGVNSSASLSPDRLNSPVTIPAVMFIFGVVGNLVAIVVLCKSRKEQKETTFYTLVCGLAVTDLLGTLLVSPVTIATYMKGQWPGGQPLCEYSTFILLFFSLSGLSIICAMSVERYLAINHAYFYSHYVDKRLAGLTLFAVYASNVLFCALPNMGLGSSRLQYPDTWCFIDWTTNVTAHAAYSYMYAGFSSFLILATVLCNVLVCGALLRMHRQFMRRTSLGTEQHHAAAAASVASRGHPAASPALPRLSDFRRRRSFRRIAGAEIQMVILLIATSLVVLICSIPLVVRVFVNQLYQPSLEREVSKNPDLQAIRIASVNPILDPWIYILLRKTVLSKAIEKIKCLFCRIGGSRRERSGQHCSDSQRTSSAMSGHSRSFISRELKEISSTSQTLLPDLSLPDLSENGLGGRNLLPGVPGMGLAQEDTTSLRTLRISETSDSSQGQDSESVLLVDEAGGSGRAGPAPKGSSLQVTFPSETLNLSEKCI
Experimental: as §8, §9, §10

hEP4/Gqs5 = target: T5, hEP4/Gqs5 (Homo sapiens, UniProt P35408); experiment: FLIPR calcium signal, hEP4/Gqs5; format: cell-based; conditions: HEK-293(EBNA) cells, read-out: EP4 Ca2+ EC50
T5 construct: expressed in transfected cells
T5 sequence (P35408 whole entry): as above
Experimental: as §4, §5, §6
Compounds are tested in a high-throughput (HTS) or concentration-response (CoRe) format. In the HTS format, forty-four compounds per plate are examined in duplicates at a concentration of 10^−5 M. To generate concentration-response curves, four compounds per plate are tested in duplicates in a concentration range between 10^−5 and 10^−11 M. The duplicate values are averaged. In either, HTS or CoRe format each compound is tested on at least 3 separate plates using cells from different passages to give an n≧3.

| SMILES | Rabbit Max Hyperemia (rabbit) | Dog Max Hyperemia (Beagle dogs [2]) | EC50 (hEP2/Gqs5) [nM] | Ki (EP2 receptor) [nM] | EC50 (hEP3A/Gqi5) [nM] | Ki (EP4 receptor) [nM] | EC50 (hEP4/Gqs5) [nM] | Monkey Max ΔIOP (cynomolgus monkeys) [mm Hg] | Dog Max ΔIOP (Beagle dogs [1]) [mm Hg] |
| --- | --- | --- | --- | --- | --- | --- | --- | --- | --- |
| CC1(C)C(=O)[C@H](C/C=C\CCCC(=O)O)[C@@H](/C=C/C(O)CCc2ccc3ccccc3c2)[C@@H]1O (stereo partly drawn) | 0.1 | 1.3 |  |  |  |  |  | 8 | 2 |
| CC1(C)C(=O)[C@H](CC#CCCCC(=O)O)[C@@H](/C=C/C(O)CCc2ccc3ccccc3c2)[C@@H]1O (single isomer, unassigned) [drawing 25] |  |  |  | 36200 | 1020 | 1240 | 16.3 |  |  |
| CC1(C)C(=O)[C@H](CC#CCCCC(=O)O)[C@@H](/C=C/C(O)CCc2ccc3ccccc3c2)[C@@H]1O (single isomer, unassigned) [drawing 26] |  |  | > 10000 |  |  | 1860 | 8 |  |  |

Continued, in another order:

| Rabbit Max Hyperemia (rabbit) | Dog Max Hyperemia (Beagle dogs [2]) | EC50 (hEP2/Gqs5) [nM] | Ki (EP2 receptor) [nM] | EC50 (hEP3A/Gqi5) [nM] | Ki (EP4 receptor) [nM] | EC50 (hEP4/Gqs5) [nM] | SMILES | Monkey Max ΔIOP (cynomolgus monkeys) [mm Hg] | Dog Max ΔIOP (Beagle dogs [1]) [mm Hg] |
| --- | --- | --- | --- | --- | --- | --- | --- | --- | --- |
|  |  | > 10000 | > 10000 | 4020 | 14 | 0.17 | CC1(C)C(=O)[C@H](C/C=C\CCCC(=O)O)[C@@H](/C=C/C(O)CCc2ccc3ccccc3c2)[C@@H]1O (single isomer, unassigned) [drawing 23] |  |  |
|  |  | > 10000 | 16900 | 1020 | 111 | 1.3 | CC1(C)C(=O)[C@H](C/C=C\CCCC(=O)O)[C@@H](/C=C/C(O)CCc2ccc3ccccc3c2)[C@@H]1O (single isomer, unassigned) [drawing 24] |  |  |
